Experimental data: patent publication US9974778B2, “Substituted pyridinones as MGAT2 inhibitors” (BRISTOL-MYERS SQUIBB COMPANY, priority 2014, dated 2018)

Target: T1, Human MGAT-2 (Homo sapiens, UniProt Q3SYC2)
T1 construct: made in house; host or cells: Sf9 cells (membrane preparation)
Test: MGAT LCMS Assay
Format: biochemical
Details: human MGAT2 membranes expressed in Sf9 cells; 100 μM 2-oleoylglycerol, 15 μM oleoyl-coenzyme A; read-out: h-MGAT LCMS IC50
Protocol: Assay plates were run through a fully automated robotics system and shaken for 5 seconds every minute for a total 10 minutes. The reactions were then quenched with 120 μL of ice cold methanol containing 1 μg/mL 1,2-distearoyl-rac-glycerol as the internal standard. Plates were shaken for 2 minutes and spun down to remove protein precipitation. After the spin, samples were transferred to LC/MS compatible PCR plates. For LC/MS analysis, a ThermoFisher Surveyor pump, utilizing a Waters […]® C8, 50×2.1 mm column, was used for the chromatography of enzyme products. The buffer system consists of 0.1% formic acid in water with a mobile phase consisting 0.1% formic acid in methanol. […] The first 0.5 minutes of each injection was diverted to waste to eliminate the presence of Phosphate buffer in the enzymatic reaction. The column was run at 0.6 mL/min and a temperature of 65° C. Mass spectrometry analysis of the samples was performed on a ThermoFisher Quantum Triple quad utilizing APCI (+) as the mode of ionization. […] The ratio of Diolein to internal standard (Peak Area Ratio) is utilized to calculate IC50 values.

T1 sequence (Q3SYC2 whole entry): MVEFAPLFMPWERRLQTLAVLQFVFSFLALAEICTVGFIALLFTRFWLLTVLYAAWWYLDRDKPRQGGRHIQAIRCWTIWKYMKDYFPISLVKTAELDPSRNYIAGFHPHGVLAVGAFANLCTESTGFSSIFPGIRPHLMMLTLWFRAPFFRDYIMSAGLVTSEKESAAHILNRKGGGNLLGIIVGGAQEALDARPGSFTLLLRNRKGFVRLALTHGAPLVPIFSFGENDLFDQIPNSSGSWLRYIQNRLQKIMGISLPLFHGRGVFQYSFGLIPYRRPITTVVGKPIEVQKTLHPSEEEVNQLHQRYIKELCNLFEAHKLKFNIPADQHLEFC

| Structure (SMILES) | IC50 [nM] |
| --- | --- |
| Cc1ccc(-c2cc(C3CCCCC3)[nH]c(=O)c2C(=O)Nc2cccnc2)cc1 [Example 37, 6-Cyclohexyl-2-oxo-N-(pyridin-3-yl)-4-(p-tolyl)-1,2-dihydropyridine-3-carboxamide] | 543 |
| CCOc1ccc(NC(=O)c2c(-c3ccc(C)cc3)c(F)c(C3CCCCC3)[nH]c2=O)cc1 [Example 38, 6-Cyclohexyl-N-(4-ethoxyphenyl)-5-fluoro-2-oxo-4-(p-tolyl)-1,2-dihydropyridine-3-carboxamide] | 1250 |
| CCOc1ccc(NC(=O)c2c(-c3ccc(N(C)C)cc3)cc(C3(F)CCCCC3)[nH]c2=O)cc1 [Example 39, 4-(4-(Dimethylamino)phenyl)-N-(4-ethoxyphenyl)-6-(1-fluorocyclohexyl)-2-oxo-1,2-dihydropyridine-3-carboxamide] | 139 |
| CCCCCc1ccc(-c2c(C3CCCC3)[nH]c(=O)c(C(=O)Nc3ccc(OCC)cc3)c2-c2ccc(C)cc2)cc1 [Example 40, 6-Cyclopentyl-N-(4-ethoxyphenyl)-2-oxo-5-(4-pentylphenyl)-4-(p-tolyl)-1,2-dihydropyridine-3-carboxamide] | 390 |
| CCOc1ccc(NC(=O)c2c(-c3ccc(C)cc3)cc(C3(F)CCCCC3)[nH]c2=O)cc1 [Example 41, N-(4-Ethoxyphenyl)-6-(1-fluorocyclohexyl)-2-oxo-4-(p-tolyl)-1,2-dihydropyridine-3-carboxamide] | 36 |
| CCCCCc1ccc(-c2cc(-c3ccc(CC)o3)c(C(=O)Nc3ccc(OCC)cc3)c(=O)[nH]2)cc1 [Example 42, N-(4-Ethoxyphenyl)-4-(5-ethylfuran-2-yl)-2-oxo-6-(4-pentylphenyl)-1,2-dihydropyridine-3-carboxamide] | 395 |
| CC(C)(C)c1ccc(-c2cc(-c3ccc(OCCCC(F)(F)F)cc3)[nH]c(=O)c2C(=O)Nc2ccccc2)cc1 [Example 44, 4-(4-(tert-Butyl)phenyl)-2-oxo-N-phenyl-6-(4-(4,4,4-trifluorobutoxy)phenyl)-1,2-dihydropyridine-3-carboxamide] | 6 |
| CCOc1ccc(NC(=O)c2c(-c3ccc(C(C)(C)C)cc3)cc(-c3ccc(OCCCC(F)(F)F)cc3)[nH]c2=O)cc1 [Example 45, 4-(4-(tert-Butyl)phenyl)-N-(4-ethoxyphenyl)-2-oxo-6-(4-(4,4,4-trifluorobutoxy)phenyl)-1,2-dihydropyridine-3-carboxamide] | 9 |
| O=c1[nH]c(-c2ccc(OCCCC(F)(F)F)cc2)cc(-c2cc3ccccc3s2)c1-c1nnn[nH]1 [Example 47, 4-(Benzo[b]thiophen-2-yl)-3-(1H-tetrazol-5-yl)-6-(4-(4,4,4-trifluorobutoxy)phenyl)pyridin-2(1H)-one] | 29 |
| CC(C)(C)c1ccc(-c2cc(-c3ccc(OCCCC(F)(F)F)cc3)[nH]c(=O)c2-c2nnn[nH]2)cc1 [Example 48, 4-(4-(tert-Butyl)phenyl)-3-(1H-tetrazol-5-yl)-6-(4-(4,4,4-trifluorobutoxy)phenyl)pyridin-2(1H)-one] | 40 |
| Cc1ccc(-c2cc(-c3ccc(OCCCC(F)(F)F)cc3)[nH]c(=O)c2-c2nnn[nH]2)cc1C [Example 50, 4-(3,4-Dimethylphenyl)-3-(1H-tetrazol-5-yl)-6-(4-(4,4,4-trifluorobutoxy)phenyl)pyridin-2(1H)-one] | 109 |
| COc1ccc(NC(=O)c2c(-c3ccc(C(C)(C)C)cc3)cc(-c3ccc(OCCCC(F)(F)F)cc3)[nH]c2=O)cc1 [Example 51, 4-(4-(tert-Butyl)phenyl)-N-(4-methoxyphenyl)-2-oxo-6-(4-(4,4,4-trifluorobutoxy)phenyl)-1,2-dihydropyridine-3-carboxamide] | 417 |
| Cc1ccc(-c2cc(-c3ccc(OCCCC(F)(F)F)c(C)c3)[nH]c(=O)c2-c2nnn[nH]2)cc1 [Example 58, 6-(3-Methyl-4-(4,4,4-trifluorobutoxy)phenyl)-3-(1H-tetrazol-5-yl)-4-(p-tolyl)pyridin-2(1H)-one] | 575 |
| CN(C)c1ncc(-c2cc(-c3ccc(OCCCC(F)(F)F)cc3)[nH]c(=O)c2-c2nnn[nH]2)s1 [Example 68, 4-(2-(Dimethylamino)thiazol-5-yl)-3-(1H-tetrazol-5-yl)-6-(4-(4,4,4-trifluorobutoxy)phenyl)pyridin-2(1H)-one] | 673 |
| O=c1[nH]c(-c2ccc(OCCCC(F)(F)F)cc2)cc(-c2ccn(C3CC3)n2)c1-c1nn[nH]n1 [Example 76, 4-(1-Cyclopropyl-1H-pyrazol-3-yl)-3-(2H-tetrazol-5-yl)-6-(4-(4,4,4-trifluorobutoxy)phenyl)pyridin-2(1H)-one] | 87 |
| O=C(NS(=O)(=O)C1CC1)c1c(-c2ccn(C3CCC3)n2)cc(-c2ccc(OCCCC(F)(F)F)cc2F)[nH]c1=O [Example 77, 4-(1-Cyclobutyl-1H-pyrazol-3-yl)-N-(cyclopropylsulfonyl)-6-(2-fluoro-4-(4,4,4-trifluorobutoxy)phenyl)-2-oxo-1,2-dihydropyridine-3-carboxamide] | 143 |
| Cc1ccc(-c2cc(-c3ccc(OCCCC(F)(F)F)cc3)[nH]c(=O)c2C(=O)NC2CCC2)cc1 [Example 79, N-Cyclobutyl-2-oxo-4-(p-tolyl)-6-(4-(4,4,4-trifluorobutoxy)phenyl)-1,2-dihydropyridine-3-carboxamide] | 198 |

Now from value to molecule:

| IC50 [nM] | Structure (SMILES) |
| --- | --- |
| 27 | O=c1[nH]c(-c2ccc(OCCCCC(F)(F)F)cc2)cc(-c2ccc(C3CC3)s2)c1-c1nnn[nH]1 [Example 46] |
| 3 | C/C=C/c1c(-c2ccc(CCCCC)cc2)[nH]c(=O)c(C(=O)Nc2ccc(OCC)cc2)c1-c1ccc(C)cc1 [Example 52] |
| 267 | CCOc1ccc(NC(=O)c2c(-c3ccc(C)cc3)cc(-c3cnn(CCCCCC(F)(F)F)c3)[nH]c2=O)cc1 [Example 53, N-(4-Ethoxyphenyl)-2-oxo-4-(p-tolyl)-6-(1-(6,6,6-trifluorohexyl)-1H-pyrazol-4-yl)-1,2-dihydropyridine-3-carboxamide] |
| 127 | CCOc1ccc(NC(=O)c2c(-c3ccc(C)cc3)cc(C3(F)CCCC3)[nH]c2=O)cc1 [Example 54, N-(4-Ethoxyphenyl)-6-(1-fluorocyclopentyl)-2-oxo-4-(p-tolyl)-1,2-dihydropyridinc-3-carboxamide] |
| 29 | Cc1ccc(-c2cc(-c3ccc(OCCCCCC(F)(F)F)cc3)[nH]c(=O)c2C(=O)NS(=O)(=O)N(C)C)cc1 [Example 56, N-(N,N-Dimethylsulfamoyl)-2-oxo-4-(p-tolyl)-6-(4-((6,6,6-trifluorohexyl)oxy)phenyl)-1,2-dihydropyridine-3-carboxamide] |
| 30 | CC(C)n1ccc(-c2cc(-c3ccc(OCCCCCC(F)(F)F)cc3)[nH]c(=O)c2-c2nnn[nH]2)c1 [Example 57, 4-(1-Isopropyl-1H-pyrrol-3-yl)-3-(1H-tetrazol-5-yl)-6-(4-((6,6,6-trifluorohexyl)oxy)phenyl)pyridin-2(1H)-one] |
| 6 | CN(C)c1ccc(-c2cc(-c3ccc(OCCCCCC(F)(F)F)cc3)[nH]c(=O)c2-c2nnn[nH]2)cc1 [Example 59, 4-(4-(Dimethylamino)phenyl)-3-(1H-tetrazol-5-yl)-6-(4-((6,6,6-trifluorohexyl)oxy)phenyl)pyridin-2(1H)-one] |
| 139 | Cc1ccc(-c2cc(-c3ccc(CCC4CC4)cc3)[nH]c(=O)c2-c2nnn[nH]2)cc1 [Example 61, 6-(4-(2-Cyclopropylethyl)phenyl)-3-(1H-tetrazol-5-yl)-4-(p-tolyl)pyridin-2(1H)-one] |
| 188 | Cc1ccc(-c2cc(-c3ncc(CCCCCCC(F)(F)F)s3)[nH]c(=O)c2-c2nnn[nH]2)cc1 [Example 62, 3-(1H-Tetrazol-5-yl)-4-(p-tolyl)-6-(5-(7,7,7-trifluoroheptyl)thiazol-2-yl)pyridin-2(1H)-one] |
| 17 | O=C(NS(=O)(=O)C1CC1)c1c(-c2ccc(CC3CC3)cc2)cc(-c2ccc(OCCCCCC(F)(F)F)cc2)[nH]c1=O [Example 63, 4-(4-(Cyclopropylmethyl)phenyl)-N-(cyclopropylsulfonyl)-2-oxo-6-(4-((6,6,6-trifluorohexyl)oxy)phenyl)-1,2-dihydropyridine-3-carboxamide] |
| 172 | COc1ccc(-c2cc(-c3ccc(OCCCCCC(F)(F)F)cc3)[nH]c(=O)c2C(=O)NS(=O)(=O)C2CC2)cc1 [Example 65] |
| 61 | CC(C)n1ccc(-c2cc(-c3ccc(OCCCCCC(F)(F)F)cc3)[nH]c(=O)c2-c2nn[nH]n2)n1 [Example 66] |
| 2 | CCOc1ccc(NC(=O)c2c(-c3cnc(N(C)C)s3)cc(-c3ccc(OCCCC(F)(F)F)cc3)[nH]c2=O)cc1 [Example 67] |
| 220 | Cc1ccc(-c2cc(-c3ccc(C4=CCCCCC4)cc3)[nH]c(=O)c2-c2nnn[nH]2)cc1 [Example 69, 6-(4-(Cyclohept-1-en-1-yl)phenyl)-3-(1H-tetrazol-5-yl)-4-(p-tolyl)pyridin-2(1H)-one] |
| 97 | Cc1ccc(-c2cc(-c3ccc(OCCCCCC(F)(F)F)c(C)c3)[nH]c(=O)c2-c2nnn[nH]2)cc1 [Example 70, 6-(3-Methyl-4-((6,6,6-trifluorohexyl)oxy)phenyl)-3-(1H-tetrazol-5-yl)-4-(p-tolyl)pyridin-2(1H)-one] |
| 15 | CS(=O)(=O)NC(=O)c1c(-c2ccc(OC(F)F)cc2)cc(-c2ccc(OCCCCCC(F)(F)F)cc2)[nH]c1=O [Example 71] |
| 255 | CC(C)n1ccc(-c2cc(-c3ccc(CCCCC(F)(F)F)cc3)[nH]c(=O)c2-c2nn[nH]n2)n1 [Example 74, 4-(1-Isopropyl-1H-pyrazol-3-yl)-3-(2H-tetrazol-5-yl)-6-(4-(5.5,5-trifluoropentyl)phenyl)pyridin-2(1H)-one] |
